Reference: PubChem BioAssay (NCI)
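Protocol summary: plate cells (96-well), add compound at 5 concentrations, incubate 48 h, interpolate endpoints linearly. GI50: concentration for 50% inhibition of growth. At the TGI there is no net growth.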

Key:
Test in all cases: inhibition of tumour cell growth, NCI panel, 48 h
[1] = tested on: HS 578T breast
[2] = tested on: SR leukemia
[3] = tested on: UACC-257 melanoma
[4] = tested on: HOP-92 NSCLC
[5] = tested on: 786-0 renal
[6] = tested on: SNB-75 CNS
[7] = tested on: UO-31 renal
[8] = tested on: HT29 colon
[9] = tested on: KM12 colon
[10] = tested on: ACHN renal
[11] = tested on: MDA-MB-435
[12] = tested on: UACC-62 melanoma
[13] = tested on: HCT-116 colon
[14] = tested on: SK-MEL-28 melanoma
[15] = tested on: NCI/ADR-RES ovarian
[16] = tested on: OVCAR-5 ovarian
[17] = tested on: TK-10 renal
[18] = tested on: MCF7 breast
[19] = tested on: HOP-62 NSCLC
[20] = tested on: SK-OV-3 ovarian
[21] = tested on: BT-549 breast
[22] = tested on: K-562 leukemia
[23] = tested on: RXF 393 renal
[24] = tested on: M14 melanoma
[25] = tested on: SK-MEL-5 melanoma
[26] = tested on: U251 CNS
[27] = tested on: SN12C renal
[28] = tested on: NCI-H226 lung
[29] = tested on: RPMI-8226 leukemia
[30] = tested on: OVCAR-8 ovarian
[31] = tested on: MOLT-4 leukemia
[32] = tested on: OVCAR-4 ovarian
[33] = tested on: NCI-H460 lung
[34] = tested on: CCRF-CEM leukemia
[35] = tested on: MALME-3M melanoma
[36] = tested on: HCC-2998 colon
[37] = tested on: PC-3 prostate
[38] = tested on: A549 NSCLC
[39] = tested on: OVCAR-3 ovarian
[40] = tested on: LOX IMVI melanoma
[41] = tested on: HL-60(TB) leukemia
[42] = tested on: SK-MEL-2 melanoma
[43] = tested on: NCI-H23 lung
[44] = tested on: SF-539 CNS
[45] = tested on: IGROV1 ovarian
[46] = tested on: SW-620 colon
[47] = tested on: T-47D breast
[48] = tested on: SF-268 CNS
[49] = tested on: MDA-MB-231 breast
[50] = tested on: SNB-19 CNS
[51] = tested on: DU-145 prostate
[52] = tested on: CAKI-1 renal

Clc1cccc(Cc2cn3cc(-c4ccccc4)nc3s2)c1
GI50 [1]: 13.4 µM | TGI [1]: > 100 µM | GI50 [2]: 36.5 µM | TGI [2]: > 100 µM | GI50 [3]: 10.3 µM | TGI [3]: > 100 µM | GI50 [4]: 11.5 µM | TGI [4]: 34.3 µM | GI50 [5]: 26.7 µM | TGI [5]: > 100 µM | GI50 [6]: 21.2 µM | TGI [6]: 76.7 µM | GI50 [7]: 7.47 µM | TGI [7]: > 100 µM | GI50 [8]: 11.8 µM | TGI [8]: > 100 µM | GI50 [9]: 1.99 µM | TGI [9]: > 100 µM | GI50 [10]: 2.77 µM | TGI [10]: > 100 µM | GI50 [11]: 3.48 µM | TGI [11]: > 100 µM | GI50 [12]: 0.323 µM | TGI [12]: 1.97 µM | GI50 [13]: 9.36 µM | TGI [13]: > 100 µM | GI50 [14]: 61.5 µM | TGI [14]: > 100 µM | GI50 [15]: 3.49 µM | TGI [15]: > 100 µM | GI50 [16]: 66.8 µM | TGI [16]: > 100 µM | GI50 [17]: 22 µM | TGI [17]: > 100 µM | GI50 [18]: 2.79 µM | TGI [18]: > 100 µM | GI50 [19]: 9.1 µM | TGI [19]: 40.5 µM | GI50 [20]: 39.6 µM | TGI [20]: > 100 µM | GI50 [21]: 28.8 µM | TGI [21]: > 100 µM | GI50 [22]: 0.591 µM | TGI [22]: > 100 µM | GI50 [23]: 15.1 µM | TGI [23]: 40.4 µM | GI50 [24]: 0.84 µM | TGI [24]: > 100 µM | GI50 [25]: 2.67 µM | TGI [25]: > 100 µM | GI50 [26]: 9.18 µM | TGI [26]: 81.2 µM | GI50 [27]: 7.41 µM | TGI [27]: > 100 µM | GI50 [28]: 49.2 µM | TGI [28]: > 100 µM | GI50 [29]: 7.4 µM | TGI [29]: > 100 µM | GI50 [30]: 20.5 µM | TGI [30]: > 100 µM | GI50 [31]: > 100 µM | TGI [31]: > 100 µM | GI50 [32]: 4.42 µM | TGI [32]: > 100 µM | GI50 [33]: 3.31 µM | TGI [33]: > 100 µM | GI50 [34]: 43 µM | TGI [34]: > 100 µM | GI50 [35]: 21.4 µM | TGI [35]: > 100 µM | GI50 [36]: 2.39 µM | TGI [36]: > 100 µM | GI50 [37]: 14.4 µM | TGI [37]: > 100 µM | GI50 [38]: 3.93 µM | TGI [38]: > 100 µM | GI50 [39]: 9.07 µM | TGI [39]: > 100 µM | GI50 [40]: 0.629 µM | TGI [40]: > 100 µM | GI50 [41]: 9.13 µM | TGI [41]: > 100 µM | GI50 [42]: 3.28 µM | TGI [42]: 34.4 µM | GI50 [43]: 9.07 µM | TGI [43]: 98.9 µM | GI50 [44]: 8.31 µM | TGI [44]: > 100 µM | GI50 [45]: 5.36 µM | TGI [45]: > 100 µM | GI50 [46]: 1.26 µM | TGI [46]: > 100 µM | GI50 [47]: 2.33 µM | TGI [47]: > 100 µM | GI50 [48]: 12.8 µM | TGI [48]: > 100 µM | GI50 [49]: 1.91 µM | TGI [49]: 21.3 µM | GI50 [50]: 8.92 µM | TGI [50]: > 100 µM | GI50 [51]: 17.7 µM | TGI [51]: > 100 µM | GI50 [52]: 2.68 µM | TGI [52]: > 100 µM
